Test results published in US7968529B2, “Use of sphingolipids for reducing high plasma cholesterol and high triacylglycerol levels” (Nederlandse Organisatie Voor …, priority 2003, dated 2011).

Key:
Assay type in all cases: in vivo
[1] = tested on: APOE*3Leiden transgenic mice; assay: Plasma lipoprotein distribution pattern by fplc in pooled samples; conditions: separate experiment, 1.0% (w/w) in diet
Source text: The phytosphingosine, ceramide IV and cerebroside (=glucosyl ceramide) were obtained from Cosmoferm BV (Delft, The Netherlands). Sphingomyelin from egg was obtained from Larodan Fine Chemicals AB (Stockholm, Sweden) and sphingosine and sphinganine were obtained from Avanti Polar Lipids Inc, (Alabaster, Ala., USA). During the experiment, body weight and food intake were monitored. At three weeks after the dietary change, blood was taken to determine plasma cholesterol and triglyceride levels. Also, the plasma lipoprotein pattern was determined group wise in pooled samples by fplc. Then, the concentration of the additives was changed to 0.2%, and feeding continued for another 3 weeks. At three weeks after this dietary change, blood was again taken to determine plasma cholesterol and triglyceride levels, and the plasma lipoprotein pattern was determined group wise in pooled samples by fplc. The dietary additives were then changed to 0.4% (w/w), and the same cycle of feeding and blood sampling was executed. […] In a separate experiment, groups of six APOE*3Leiden mice were fed the above-described Western-type diet, containing 1.0% (w/w) of phytosphingosine. At the end of the treatment period, plasma cholesterol was reduced with 58% (p=0.007) and plasma triglyceride was reduced with 64% (p=0.01) with respect to the control group.

[2] = tested on: APOE*3Leiden transgenic mice; assay: Plasma triglycerides in APOE*3Leiden transgenic mice fed a Western-type diet with sphingolipid
Source text: (§1) In this experiment mice were used in which the human gene for the so-called Leiden mutation of apolipoprotein E3 (APOE*3Leiden transgenic mice) had been incorporated by transgenesis. Because of this transgenic change, these so-called APOE*3Leiden mice have a humanized lipoprotein profile, and are extremely suitable for studying the effect of compounds on lipoprotein metabolism (Van Vlijmen et. al. 1996. J Clin Invest. 97:1184-1192; Van Vlijmen et. al. 1998. Arzneimittelforschung 1998; 48:396-402.).
(§2) The study design was as follows: female mice were fed for 5 weeks “Western-type” diet (Nishina et al. 1990. J Lipid Res. 31:859-869) containing 0.25% (w/w) cholesterol. Specifically, the diet contained 15% (all w/w) cocoabutter, 0.25% cholesterol, 1% corn oil, 40.5% sucrose, 20% acid casein, 10% corn starch and 5.95% cellulose, as major ingredients. This diet increased their plasma cholesterol level to about 15 mmol/L. Subsequently, the mice were randomized, on the basis of their plasma cholesterol level, into groups of six mice each. These groups were given the same diet, but containing in addition: • Group 1 no addition • Group 2 0.1% (w/w) phytosphingosine • Group 3 0.1% (w/w) sphingosine • Group 4 0.1% (w/w) sphinganine • Group 5 0.1% (w/w) cerebroside • Group 6 0.1% (w/w) ceramide IV • Group 7 0.1% (w/w) sphingomyelin
(§3) The phytosphingosine, ceramide IV and cerebroside (=glucosyl ceramide) were obtained from Cosmoferm BV (Delft, The Netherlands). Sphingomyelin from egg was obtained from Larodan Fine Chemicals AB (Stockholm, Sweden) and sphingosine and sphinganine were obtained from Avanti Polar Lipids Inc, (Alabaster, Ala., USA). During the experiment, body weight and food intake were monitored. At three weeks after the dietary change, blood was taken to determine plasma cholesterol and triglyceride levels. Also, the plasma lipoprotein pattern was determined group wise in pooled samples by fplc. Then, the concentration of the additives was changed to 0.2%, and feeding continued for another 3 weeks. At three weeks after this dietary change, blood was again taken to determine plasma cholesterol and triglyceride levels, and the plasma lipoprotein pattern was determined group wise in pooled samples by fplc. The dietary additives were then changed to 0.4% (w/w), and the same cycle of feeding and blood sampling was executed.
(§4) In a separate experiment, groups of six APOE*3Leiden mice were fed the above-described Western-type diet, containing 1.0% (w/w) of phytosphingosine. At the end of the treatment period, plasma cholesterol was reduced with 58% (p=0.007) and plasma triglyceride was reduced with 64% (p=0.01) with respect to the control group.

[3] = tested on: APOE*3Leiden transgenic mice; assay: Plasma cholesterol in APOE*3Leiden transgenic mice fed a Western-type diet with sphingolipid
Source text: as §1, §2, §3, §4

[4] = t = 0, baseline after 5 weeks Western-type diet, before addition of sphingolipid, female mice, group mean
[5] = t = 3 (weeks), 0.1% (w/w) in diet
[6] = t = 6 (weeks), 0.2% in diet for the last 3 weeks
[7] = t = 9 (weeks), 0.4% (w/w) in diet for the last 3 weeks

Question: `CCCCCCCCCCCCCC[C@@H](O)[C@@H](O)[C@@H](N)CO` [PHYTOSPHINGOSINE, phytosphingosine] was tested. Which “lipoprotein fractions accounting for the decrease of cholesterol and triglycerides (fplc)” value [1] did it give?
Answer: fully due to a decrease in VLDL and IDL/LDL fractions

Question: What about the “plasma triglyceride reduced with respect to the control group” value ([2]; separate experiment, 1.0% (w/w) in Western-type diet, end of treatment period, p=0.01) of the same compound?
Answer: 64%

Question: What about the Plasma triglyceride levels [2, 4] of the same compound?
Answer: 2.1 mmol/L

Question: And the Plasma triglyceride levels [2, 5]?
Answer: 1.7 mmol/L

Question: And the “Plasma triglyceride reduction relative to control” value ([2]; t = 3 (weeks), 0.1% in diet)?
Answer: 22.9%

Question: And the “Plasma triglyceride reduction relative to control” value ([2]; t = 6 (weeks), 0.2% in diet)?
Answer: 39.8%

Question: What about the Plasma triglyceride levels [2, 6] of the same compound?
Answer: 1.2 mmol/L

Question: And the Plasma triglyceride levels [2, 7]?
Answer: 1.5 mmol/L

Question: And the “Plasma triglyceride reduction relative to control” value ([2]; t = 9 (weeks), 0.4% in diet)?
Answer: 34.8%

Question: What about the “plasma cholesterol reduced with respect to the control group” value ([3]; separate experiment, 1.0% (w/w) in Western-type diet, end of treatment period, p=0.007) of the same compound?
Answer: 58%

Question: And the Plasma cholesterol levels [3, 4]?
Answer: 14.4 mmol/L

Question: What about the Plasma cholesterol levels [3, 5] of the same compound?
Answer: 13.2 mmol/L

Question: And the “Plasma cholesterol reduction relative to control” value ([3]; t = 3 (weeks), 0.1% in diet)?
Answer: 11.6%

Question: What about the “Plasma cholesterol reduction relative to control” value ([3]; t = 6 (weeks), 0.2% in diet) of the same compound?
Answer: 19.7%

Question: And the Plasma cholesterol levels [3, 6]?
Answer: 12.6 mmol/L

Question: And the Plasma cholesterol levels [3, 7]?
Answer: 10.9 mmol/L

Question: And the “Plasma cholesterol reduction relative to control” value ([3]; t = 9 (weeks), 0.4% in diet)?
Answer: 34.8%

Question: With `CCCCCCCCCCCCCCC[C@@H](O)[C@@H](N)CO` [SPHINGANINE, sphinganine] as the compound, how does the Plasma triglyceride levels [2, 4] read?
Answer: 2.3 mmol/L

Question: What about the Plasma triglyceride levels [2, 5] of the same compound?
Answer: 1.7 mmol/L

Question: And the “Plasma triglyceride reduction relative to control” value ([2]; t = 3 (weeks), 0.1% in diet)?
Answer: 19.2%

Question: And the “Plasma triglyceride reduction relative to control” value ([2]; t = 6 (weeks), 0.2% in diet)?
Answer: 52.9%

Question: And the Plasma triglyceride levels [2, 6]?
Answer: 1.0 mmol/L

Question: And the Plasma triglyceride levels [2, 7]?
Answer: 1.2 mmol/L

Question: And the “Plasma triglyceride reduction relative to control” value ([2]; t = 9 (weeks), 0.4% in diet)?
Answer: 44.9%

Question: And the Plasma cholesterol levels [3, 4]?
Answer: 15.9 mmol/L

Question: What about the Plasma cholesterol levels [3, 5] of the same compound?
Answer: 14.9 mmol/L

Question: What about the “Plasma cholesterol reduction relative to control” value ([3]; t = 3 (weeks), 0.1% in diet) of the same compound?
Answer: 0.3%

Question: And the “Plasma cholesterol reduction relative to control” value ([3]; t = 6 (weeks), 0.2% in diet)?
Answer: 36.2%

Question: And the Plasma cholesterol levels [3, 6]?
Answer: 10.0 mmol/L

Question: What about the Plasma cholesterol levels [3, 7] of the same compound?
Answer: 11.5 mmol/L

Question: What about the “Plasma cholesterol reduction relative to control” value ([3]; t = 9 (weeks), 0.4% in diet) of the same compound?
Answer: 31.2%

Question: Which results are given for `CCCCCCCCCCCCC/C=C/[C@@H](O)[C@@H](N)CO` [SPHINGOSINE, sphingosine]?
Answer: Plasma triglyceride levels [2, 4]: 2.3 mmol/L; Plasma triglyceride levels [2, 5]: 2.2 mmol/L; Plasma triglyceride reduction relative to control ([2]; t = 3 (weeks), 0.1% in diet): −0.6%; Plasma triglyceride reduction relative to control ([2]; t = 6 (weeks), 0.2% in diet): 32.5%; Plasma triglyceride levels [2, 6]: 1.4 mmol/L; Plasma triglyceride levels [2, 7]: 1.0 mmol/L; Plasma triglyceride reduction relative to control ([2]; t = 9 (weeks), 0.4% in diet): 54.3%; Plasma cholesterol levels [3, 4]: 14.6 mmol/L; Plasma cholesterol levels [3, 5]: 15.3 mmol/L; Plasma cholesterol reduction relative to control ([3]; t = 3 (weeks), 0.1% in diet): −2.1%; Plasma cholesterol reduction relative to control ([3]; t = 6 (weeks), 0.2% in diet): 29.7%; Plasma cholesterol levels [3, 6]: 11.0 mmol/L; Plasma cholesterol levels [3, 7]: 9.5 mmol/L; Plasma cholesterol reduction relative to control ([3]; t = 9 (weeks), 0.4% in diet): 43.3%

Question: For ceramide IV, which Plasma triglyceride levels [2, 4] is on record?
Answer: 2.3 mmol/L

Question: And the Plasma triglyceride levels [2, 5]?
Answer: 2.0 mmol/L

Question: What about the “Plasma triglyceride reduction relative to control” value ([2]; t = 3 (weeks), 0.1% in diet) of the same compound?
Answer: 8.5%

Question: What about the “Plasma triglyceride reduction relative to control” value ([2]; t = 6 (weeks), 0.2% in diet) of the same compound?
Answer: 49.1%

Question: And the Plasma triglyceride levels [2, 6]?
Answer: 1.1 mmol/L

Question: What about the Plasma triglyceride levels [2, 7] of the same compound?
Answer: 1.4 mmol/L

Question: And the “Plasma triglyceride reduction relative to control” value ([2]; t = 9 (weeks), 0.4% in diet)?
Answer: 38.4%

Question: What about the Plasma cholesterol levels [3, 4] of the same compound?
Answer: 15.6 mmol/L

Question: And the Plasma cholesterol levels [3, 5]?
Answer: 14.8 mmol/L

Question: And the “Plasma cholesterol reduction relative to control” value ([3]; t = 3 (weeks), 0.1% in diet)?
Answer: 1.5%

Question: And the “Plasma cholesterol reduction relative to control” value ([3]; t = 6 (weeks), 0.2% in diet)?
Answer: 19.4%

Question: And the Plasma cholesterol levels [3, 6]?
Answer: 12.6 mmol/L

Question: What about the Plasma cholesterol levels [3, 7] of the same compound?
Answer: 11.7 mmol/L

Question: What about the “Plasma cholesterol reduction relative to control” value ([3]; t = 9 (weeks), 0.4% in diet) of the same compound?
Answer: 29.9%

Question: What does the source list for glucosyl ceramide [CEREBROSIDE]?
Answer: Plasma triglyceride levels [2, 4]: 2.2 mmol/L; Plasma triglyceride levels [2, 5]: 2.2 mmol/L; Plasma triglyceride reduction relative to control ([2]; t = 3 (weeks), 0.1% in diet): −1.2%; Plasma triglyceride reduction relative to control ([2]; t = 6 (weeks), 0.2% in diet): 42.0%; Plasma triglyceride levels [2, 6]: 1.2 mmol/L; Plasma triglyceride levels [2, 7]: 1.8 mmol/L; Plasma triglyceride reduction relative to control ([2]; t = 9 (weeks), 0.4% in diet): 21.9%; Plasma cholesterol levels [3, 4]: 14.8 mmol/L; Plasma cholesterol levels [3, 5]: 14.2 mmol/L; Plasma cholesterol reduction relative to control ([3]; t = 3 (weeks), 0.1% in diet): 5.2%; Plasma cholesterol reduction relative to control ([3]; t = 6 (weeks), 0.2% in diet): 25.6%; Plasma cholesterol levels [3, 6]: 11.7 mmol/L; Plasma cholesterol levels [3, 7]: 12.8 mmol/L; Plasma cholesterol reduction relative to control ([3]; t = 9 (weeks), 0.4% in diet): 23.4%

Question: Which Plasma triglyceride levels [2, 4] does the source give for sphingomyelin here?
Answer: 2.5 mmol/L

Question: And the Plasma triglyceride levels [2, 5]?
Answer: 1.7 mmol/L

Question: What about the “Plasma triglyceride reduction relative to control” value ([2]; t = 3 (weeks), 0.1% in diet) of the same compound?
Answer: 19.9%

Question: What about the “Plasma triglyceride reduction relative to control” value ([2]; t = 6 (weeks), 0.2% in diet) of the same compound?
Answer: 42.7%

Question: And the Plasma triglyceride levels [2, 6]?
Answer: 1.2 mmol/L

Question: And the Plasma triglyceride levels [2, 7]?
Answer: 0.9 mmol/L

Question: And the “Plasma triglyceride reduction relative to control” value ([2]; t = 9 (weeks), 0.4% in diet)?
Answer: 59.5%

Question: And the Plasma cholesterol levels [3, 4]?
Answer: 15.1 mmol/L

Question: What about the Plasma cholesterol levels [3, 5] of the same compound?
Answer: 14.7 mmol/L

Question: What about the “Plasma cholesterol reduction relative to control” value ([3]; t = 3 (weeks), 0.1% in diet) of the same compound?
Answer: 1.9%

Question: And the “Plasma cholesterol reduction relative to control” value ([3]; t = 6 (weeks), 0.2% in diet)?
Answer: 36.8%

Question: What about the Plasma cholesterol levels [3, 6] of the same compound?
Answer: 9.9 mmol/L

Question: What about the Plasma cholesterol levels [3, 7] of the same compound?
Answer: 8.7 mmol/L

Question: And the “Plasma cholesterol reduction relative to control” value ([3]; t = 9 (weeks), 0.4% in diet)?
Answer: 48.2%
